Assay results from the NIST ThermoML archive (doi:10.1016/j.fluid.2008.02.005).
Numbers after ± are expanded uncertainties.

Legend:
[1] = xn = mol fraction of the nth substance listed; conditions: 101 kPa, Liquid
[2] = 101.33 kPa, Liquid

CCCCCCOCCOCCO [2-(2-hexyloxyethoxy)ethanol] + CCCCCO
mass density [kg/m3], [1]
Conditions	288.15 K	298.15 K	308.15 K
x1 = 0.1112	837.545 ± 0.41	830.059 ± 0.42	822.319 ± 0.44
x1 = 0.1587	846.35 ± 0.4	838.122 ± 0.41	830.389 ± 0.42
x1 = 0.2096	855.128 ± 0.39	846.145 ± 0.4	838.566 ± 0.41
x1 = 0.2584	862.625 ± 0.38	853.171 ± 0.39	845.659 ± 0.4
x1 = 0.3012	868.44 ± 0.37	858.72 ± 0.38	851.35 ± 0.39
x1 = 0.3558	874.88 ± 0.36	865.166 ± 0.37	857.77 ± 0.38
x1 = 0.4022	879.672 ± 0.35	870.098 ± 0.36	862.642 ± 0.38
x1 = 0.4506	884.17 ± 0.34	874.849 ± 0.36	867.245 ± 0.37
x1 = 0.5069	889.049 ± 0.34	880.057 ± 0.35	872.125 ± 0.36
x1 = 0.541	891.897 ± 0.33	883.079 ± 0.35	874.951 ± 0.36
x1 = 0.5971	896.445 ± 0.33	887.853 ± 0.34	879.382 ± 0.35
x1 = 0.6456	900.337 ± 0.32	891.848 ± 0.33	883.098 ± 0.35
x1 = 0.6998	904.59 ± 0.31	896.131 ± 0.33	887.198 ± 0.34
x1 = 0.747	908.177 ± 0.31	899.702 ± 0.32	890.721 ± 0.34
x1 = 0.8052	912.354 ± 0.3	903.888 ± 0.32	894.96 ± 0.33
x1 = 0.8501	915.348 ± 0.3	906.892 ± 0.31	898.056 ± 0.32
x1 = 0.9008	918.511 ± 0.29	910.007 ± 0.31	901.375 ± 0.32
x1 = 0.9459	921.161 ± 0.29	912.609 ± 0.3	903.991 ± 0.32

CO [methanol]
[2]
Conditions	mass density [kg/m3]
288.15 K	795.969 ± 0.48
298.15 K	786.548 ± 0.49
308.15 K	777.067 ± 0.51

CCCO [propan-1-ol]
[2]
Conditions	mass density [kg/m3]
288.15 K	807.898 ± 0.46
298.15 K	799.666 ± 0.47
308.15 K	791.765 ± 0.49

CCCCCCOCCOCCO [2-(2-hexyloxyethoxy)ethanol] + CO
mass density [kg/m3], [1]
Conditions	288.15 K	298.15 K	308.15 K
x1 = 0.1165	853.467 ± 0.39	844.018 ± 0.41	834.816 ± 0.42
x1 = 0.162	865.705 ± 0.37	856.244 ± 0.39	846.965 ± 0.4
x1 = 0.2113	875.875 ± 0.36	866.451 ± 0.37	857.177 ± 0.39
x1 = 0.266	884.716 ± 0.34	875.458 ± 0.36	866.337 ± 0.37
x1 = 0.3119	890.88 ± 0.34	881.656 ± 0.35	872.742 ± 0.36
x1 = 0.3606	896.388 ± 0.33	887.19 ± 0.34	878.481 ± 0.35
x1 = 0.4012	900.31 ± 0.32	891.16 ± 0.33	882.585 ± 0.35
x1 = 0.4577	904.872 ± 0.31	895.844 ± 0.33	887.363 ± 0.34
x1 = 0.5071	908.159 ± 0.31	899.262 ± 0.32	890.741 ± 0.33
x1 = 0.5578	911.041 ± 0.3	902.168 ± 0.32	893.568 ± 0.33
x1 = 0.6037	913.218 ± 0.3	904.353 ± 0.31	895.701 ± 0.33
x1 = 0.6644	915.682 ± 0.3	906.87 ± 0.31	898.078 ± 0.32
x1 = 0.7102	917.283 ± 0.29	908.456 ± 0.31	899.602 ± 0.32
x1 = 0.7533	918.633 ± 0.29	909.864 ± 0.31	901.011 ± 0.32
x1 = 0.7928	919.837 ± 0.29	911.054 ± 0.3	902.199 ± 0.32
x1 = 0.8517	921.511 ± 0.29	912.714 ± 0.3	903.777 ± 0.32
x1 = 0.9	922.714 ± 0.29	913.911 ± 0.3	905.244 ± 0.31
x1 = 0.9674	924.001 ± 0.28	915.182 ± 0.3	906.508 ± 0.31
